Source: PMC7934687 (Vaccine, 2021)
Where two headings read alike, the source gives them in different places.

Experiments:
Type in all cases: binding
HLA-DRB1*01:01 = HLA-DRB1*01:01 (Homo sapiens, UniProt P01903+P01911, A100R/D57E/F55L/F60I/F76Y/I96L/L162R/M171V/P40L/Q125E/R42F/V115G/Y59C); conditions: reference peptide, short 15 amino acid form
HLA-DRB1*15:01 = HLA-DRB1*15:01 (Homo sapiens, UniProt P01903+P01911); conditions: reference peptide, short 15 amino acid form
HLA-A*02:01 = HLA-A*02:01 (Homo sapiens, UniProt P04439, D140Y/D185E/D98H/E176V/E277Q/G131W/G231S/I119V/I121R/I166T/I218V/L300P/L318F/N151K/N90K/P208A/P217A/Q86G/Q94H/R138H/R169H/T345S)

For PVSKMRMATPLLMQA [CLIP], the “interaction with recombinant HLA-DRB1*01:01” value (HLA-DRB1*01:01) was “interacts strongly” and the “interaction with recombinant HLA-DRB1*15:01” value (HLA-DRB1*15:01) was “interacts strongly”.
SVLLFLAFV was tested, and the “Practical Exchange rate” value (HLA-A*02:01) was 57.5%.
For ISDEFSSNV, the “Practical Exchange rate” value (HLA-A*02:01; […], exiting peptide removed) was 93.5%.
With YLYALVYFL the “Practical Exchange rate” value (HLA-A*02:01; […], exiting peptide removed) was 85%.
